Test results from PubChem BioAssay AID1919008 (Molecular Pharmacology Branch, DTP, NCI, 2023).

System: DMS-114 complex spheroids with HUVEC/MSC, growth % test/control
Experiment: Anticancer human tumor DMS-114 cell line growth inhibition [AhR];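 further: spheroids exposed to agents for 7 days before readout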;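 on viability, T/C: 100% = DMSO vehicle control wells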
Conditions: for IC50: curve of first compound; for viability, T/C: stronger effect = lower value
Method in brief: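 Spheroids combined tumor cells with HUVEC endothelial cells and human MSCs as stroma. AhR antagonists were paired with standard or investigational drugs, each dosed in half-log steps down from near clinical Cmax, or from 10 microM where Cmax was unknown.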

[1] = second compound 0.1 µM, first compound 0.0316 µM
[2] = second compound 0.1 µM, first compound 0.1 µM
[3] = second compound 0.1 µM, first compound 0.316 µM
[4] = second compound 0.1 µM, first compound 1 µM
[5] = second compound 0.316 µM, first compound 0.0316 µM
[6] = second compound 0.316 µM, first compound 0.1 µM
[7] = second compound 0.316 µM, first compound 0.316 µM
[8] = second compound 0.316 µM, first compound 1 µM
[9] = second compound 1 µM, first compound 0.0316 µM
[10] = second compound 1 µM, first compound 0.1 µM
[11] = second compound 1 µM, first compound 0.316 µM
[12] = second compound 1 µM, first compound 1 µM
[13] = second compound 3.16 µM, first compound 0.0316 µM
[14] = second compound 3.16 µM, first compound 0.1 µM
[15] = second compound 3.16 µM, first compound 0.316 µM
[16] = second compound 3.16 µM, first compound 1 µM
[17] = second compound 10 µM, first compound 0.0316 µM
[18] = second compound 10 µM, first compound 0.1 µM
[19] = second compound 10 µM, first compound 0.316 µM
[20] = second compound 10 µM, first compound 1 µM

`CC1COCCN1c1cc(-c2ccnn2C)c2ccnc(-c3ccn[nH]3)c2n1` (stereo not given) + Cc1cncc(-c2nc(NCCc3c[nH]c4ccccc34)c3ncn(C(C)C)c3n2)c1 showed an IC50 (second compound 0.1 µM) of 38 nM, an IC50 (second compound 0.316 µM) of 51 nM and an IC50 (second compound 1 µM) of 41.5 nM. For the same compound, the IC50 (second compound 3.16 µM) was 41.8 nM, the IC50 (second compound 10 µM) was under 3.16 nM and the viability, T/C (second compound 0.1 µM, first compound 0.00316 µM) was 90.6%. For the same compound, the viability, T/C (second compound 0.1 µM, first compound 0.01 µM) was 85.9%, the viability, T/C [1] was 51% and the viability, T/C [2] was 29.9%. It also gave a viability, T/C [3] of 19.6%, a viability, T/C [4] of 12.8% and a viability, T/C (second compound 0.316 µM, first compound 0.00316 µM) of 97.1%. For the same compound, the viability, T/C (second compound 0.316 µM, first compound 0.01 µM) was 93.7%, the viability, T/C [5] was 61.8% and the viability, T/C [6] was 31.4%. The viability, T/C [7] was 19.8%, the viability, T/C [8] was 12% and the viability, T/C (second compound 1 µM, first compound 0.00316 µM) was 87.5%. For the same compound, the viability, T/C (second compound 1 µM, first compound 0.01 µM) was 92.6%, the viability, T/C [9] was 55.3% and the viability, T/C [10] was 27.9%. It also gave a viability, T/C [11] of 23.6%, a viability, T/C [12] of 11.7% and a viability, T/C (second compound 3.16 µM, first compound 0.00316 µM) of 83.9%. The viability, T/C (second compound 3.16 µM, first compound 0.01 µM) was 85.9%, the viability, T/C [13] was 55.8% and the viability, T/C [14] was 26.7%. The viability, T/C [15] was 17%, the viability, T/C [16] was 11.2% and the viability, T/C (second compound 10 µM, first compound 0.00316 µM) was 28.8%. It also gave a viability, T/C (second compound 10 µM, first compound 0.01 µM) of 29.6%, a viability, T/C [17] of 22.6% and a viability, T/C [18] of 15.5%. For the same compound, the viability, T/C [19] was 9.12% and the viability, T/C [20] was 7.26%.

With `CC1COCCN1c1cc(C2(S(C)(=N)=O)CC2)nc(-c2ccnc3[nH]ccc23)n1` (stereo not given) + Cc1cncc(-c2nc(NCCc3c[nH]c4ccccc34)c3ncn(C(C)C)c3n2)c1 the IC50 (second compound 0.1 µM) was 6130 nM, the IC50 (second compound 0.316 µM) was 5180 nM and the IC50 (second compound 1 µM) was 5900 nM. For the same compound, the IC50 (second compound 3.16 µM) was 4840 nM, the IC50 (second compound 10 µM) was 933 nM and the viability, T/C [1] was 98.5%. For the same compound, the viability, T/C [2] was 96%, the viability, T/C [3] was 119% and the viability, T/C [4] was 115%. The viability, T/C (second compound 0.1 µM, first compound 3.16 µM) was 81.9%, the viability, T/C (second compound 0.1 µM, first compound 10 µM) was 26.5% and the viability, T/C [5] was 105%. The viability, T/C [6] was 111%, the viability, T/C [7] was 100% and the viability, T/C [8] was 99.9%. The viability, T/C (second compound 0.316 µM, first compound 3.16 µM) was 64.1%, the viability, T/C (second compound 0.316 µM, first compound 10 µM) was 31% and the viability, T/C [9] was 122%. It also gave a viability, T/C [10] of 119%, a viability, T/C [11] of 114% and a viability, T/C [12] of 87.7%. It also gave a viability, T/C (second compound 1 µM, first compound 3.16 µM) of 77.3%, a viability, T/C (second compound 1 µM, first compound 10 µM) of 30.2% and a viability, T/C [13] of 98%. For the same compound, the viability, T/C [14] was 85.7%, the viability, T/C [15] was 93.5% and the viability, T/C [16] was 81.1%. For the same compound, the viability, T/C (second compound 3.16 µM, first compound 3.16 µM) was 64.3%, the viability, T/C (second compound 3.16 µM, first compound 10 µM) was 26% and the viability, T/C [17] was 53%. For the same compound, the viability, T/C [18] was 52.3%, the viability, T/C [19] was 67.7% and the viability, T/C [20] was 41.7%. It also gave a viability, T/C (second compound 10 µM, first compound 3.16 µM) of 39.8% and a viability, T/C (second compound 10 µM, first compound 10 µM) of 19.3%.

`O=C(C=Cn1cnc(-c2cc(C(F)(F)F)cc(C(F)(F)F)c2)n1)NNc1cnccn1` + Cc1cncc(-c2nc(NCCc3c[nH]c4ccccc34)c3ncn(C(C)C)c3n2)c1 was tested, and the IC50 (second compound 0.1 µM) was 158 nM, the IC50 (second compound 0.316 µM) was 175 nM and the IC50 (second compound 1 µM) was 166 nM. The IC50 (second compound 3.16 µM) was 166 nM, the IC50 (second compound 10 µM) was under 9.49 nM and the viability, T/C (second compound 0.1 µM, first compound 0.00949 µM) was 111%. The viability, T/C (second compound 0.1 µM, first compound 0.03 µM) was 101%, the viability, T/C (second compound 0.1 µM, first compound 0.0949 µM) was 61.7% and the viability, T/C (second compound 0.1 µM, first compound 0.3 µM) was 32.7%. The viability, T/C (second compound 0.1 µM, first compound 0.949 µM) was 15.1%, the viability, T/C (second compound 0.1 µM, first compound 3 µM) was 5.4% and the viability, T/C (second compound 0.316 µM, first compound 0.00949 µM) was 103%. It also gave a viability, T/C (second compound 0.316 µM, first compound 0.03 µM) of 99.8%, a viability, T/C (second compound 0.316 µM, first compound 0.0949 µM) of 63.5% and a viability, T/C (second compound 0.316 µM, first compound 0.3 µM) of 36.6%. For the same compound, the viability, T/C (second compound 0.316 µM, first compound 0.949 µM) was 14.4%, the viability, T/C (second compound 0.316 µM, first compound 3 µM) was 5.66% and the viability, T/C (second compound 1 µM, first compound 0.00949 µM) was 110%. It also gave a viability, T/C (second compound 1 µM, first compound 0.03 µM) of 109%, a viability, T/C (second compound 1 µM, first compound 0.0949 µM) of 65.3% and a viability, T/C (second compound 1 µM, first compound 0.3 µM) of 31.7%. The viability, T/C (second compound 1 µM, first compound 0.949 µM) was 13.6%, the viability, T/C (second compound 1 µM, first compound 3 µM) was 5.72% and the viability, T/C (second compound 3.16 µM, first compound 0.00949 µM) was 94%. The viability, T/C (second compound 3.16 µM, first compound 0.03 µM) was 109%, the viability, T/C (second compound 3.16 µM, first compound 0.0949 µM) was 61.1% and the viability, T/C (second compound 3.16 µM, first compound 0.3 µM) was 34.5%. The viability, T/C (second compound 3.16 µM, first compound 0.949 µM) was 15.1%, the viability, T/C (second compound 3.16 µM, first compound 3 µM) was 5.67% and the viability, T/C (second compound 10 µM, first compound 0.00949 µM) was 38.6%. For the same compound, the viability, T/C (second compound 10 µM, first compound 0.03 µM) was 34.2%, the viability, T/C (second compound 10 µM, first compound 0.0949 µM) was 30.6% and the viability, T/C (second compound 10 µM, first compound 0.3 µM) was 21.1%. For the same compound, the viability, T/C (second compound 10 µM, first compound 0.949 µM) was 13.5% and the viability, T/C (second compound 10 µM, first compound 3 µM) was 7.49%.
